According to US10684290B2, “LKB1 related diagnostics and treatments of cancer” (Dignity Health, priority 2014, dated 2020):

Tests used:
H838-KDLKB1 cells = experiment: Clonogenic survival of H838-LKB1 and H838-KDLKB1 cells; assay type: cell-based, human; conditions: 24 h; 2DG 10 mM, Tm 1.25 μg/ml, BFA 30 ng/ml
Description: (§1) Clonogenic survival assay were performed in 6 well dishes. Briefly, 200 of indicated cells were plated per well and allowed to attach overnight. Were indicated cells were pre-treated with 125 ng/ml of cyclohexamide (CHX) for one hour. Indicated drugs were diluted fresh into media and cells were treated for 24 h, at which time the drug containing media was removed and replaced with fresh media. After 14 days, cells were fixed in 10% Methanol/10% Acetic Acid and stained with 0.5% crystal violet. After washing in ddH2O, plates were allowed to dry and colonies of 50 cells or more were counted. The surviving fraction was calculated according to methods described by Franken et al. [Clonogenic assay of cells in vitro, NAT. PROT. 1 (5) (2006) 2315-2319].

[1] = Chronic dosing tolerability in vivo
[2] = test system: H23-KDLKB1 and H23-LKB1 cells; experiment: Clonogenic survival of H23-LKB1 and H23-KDLKB1 cells; assay type: cell-based, human; conditions: 24 h treatment, colonies after 14 days
Description: as §1, with “300-500” for “200 of indicated”, “Drugs” for “Were indicated cells were pre-treated with 125 ng/ml of cyclohexamide (CHX) for one hour. Indicated drugs”, “hours. Drug” for “h, at which time the drug”, “Franken,” for “Franken”, “al.” for “al. [Clonogenic assay of cells in vitro, NAT. PROT. 1 (5) (2006) 2315-2319].”
as §1

[3] = test system: H838-KDLKB1 and H838-LKB1 cells; experiment: Flow cytometry of ROS levels (CellROX staining); assay type: cell-based, human; conditions: CellROX FACS, 12 h; 2DG 10 mM, Tm 1.25 μg/ml, BFA 30 ng/ml; baseline difference 1.4-fold
Description: To analyze levels of reactive oxygen species (ROS), 1×10^6 H838-KDLKB1 and H838-LKB1 cells were plated and treated with the indicated drugs. Cells were then stained with 0.5 1M CellRox™ for 30 min at 37° C., collected by trypsinization and washed with PBS. Following fixation with 2% Paraformaldehyde/PBS for 20 min, cells were brought to a final volume of 500 ll in PBS. CellRox™ staining of ROS was assessed using the Accuri C6 Flow Cytometer (BD Biosciences, San Jose, Calif., USA) with the threshold set at 80,000. A total of 30,000 events were collected per sample and ROS staining intensity determined using FCS Express 4 Flow Cytometer software. Background events were gated out using unstained control. Histogram plots were overlaid and histogram subtraction was performed by subtracting the integral of the stained control from the treated sample.

[4] = test system: H23-LKB1 and H23-KDLKB1 cells; experiment: Caspase 3/7 activity assay; assay type: cell-based, human; conditions: 5 ug/ml, 24 hours
Description: H23-LKB1 and H23-KDLKB1 cell were plated as described previously and treated for 24 hours with tunicamycin (5 ug/ml) or vehicle (DMSO). Activity of Caspases 3 and 7 were determined using a Promega Caspase-Glo 3/7 kit and data analyzed as described previously.

[5] = test system: H838-KDLKB1 and H838-LKB1 cells; experiment: ATP measurement/cell viability (CellTiter-Glo), H838; assay type: cell-based, human; conditions: 48 h; 2DG 10 mM, Tm 1.25 μg/ml, BFA 30 ng/ml; p<0.005
Description: (§2) 500 H838 or A427 cells stably expressing either LKB1 or KDLKB1 were plated in 96 well plates. The following day, cells were dosed with the indicated treatments for 48 h. Cellular ATP levels were assessed using the CellTiter-Glo Luminescent Cell Viability Assay substrate (Promega) according to manufacturer's instructions. Luminescence was read using the DTX 880 Multimode Detector. Cellular ATP/cell viability was calculated relative to vehicle treated control.

[6] = test system: A427-KDLKB1 and A427-LKB1 cells; experiment: ATP measurement/cell viability (CellTiter-Glo), A427; assay type: cell-based, human; conditions: 48 h; 2DG 10 mM, Tm 1.25 μg/ml, BFA 30 ng/ml; p<0.005
Description: as §2

[7] = test system: H838-KDLKB1 and H838-LKB1 cells; experiment: Immunoblot of ER stress markers in H838-LKB1 and H838-KDLKB1 cells; assay type: cell-based, human; conditions: 12 h; 2DG 10 mM, Tm 1.25 ug/ml, BFA 30 ng/ml
Description: (§3) Cells were washed once with ice-cold PBS and incubated on ice for 30 min with a lysis buffer containing 10 mM Tris-HCl, 150 mM NaCl, 0.1% SDS and 1% IGEPAL (Sigma) to which a protease inhibitor cocktail (Sigma) and two phosphatase cocktails I and II (Sigma) were added immediately before use. Lysates were transferred to tubes and insoluble material was pelleted by centrifugation. For immunoblotting, 50-100 μg of total protein lysates were separated by SDS-PAGE and transferred to nitrocellulose. Blots were blocked in 5% milk/Tris buffered saline/0.1% TWEEN® 20 (polyoxyethylenesorbitan monolaurate) (TBST) and primary antibodies were diluted in 5% Bovine Serum Albumin (Sigma)/TBST and incubated overnight at 4° C. Blots were developed with ECL plus (GE) and visualized on a Kodak Image station.

[8] = test system: H23-KDLKB1 and H23-LKB1 NSCLC cells; experiment: Immunoblot of BiP and CHOP in H23-LKB1 and H23-KDLKB1 cells; assay type: cell-based, human; conditions: 18 h; or bortezomib (40 nM)
Description: as §3

[9] = test system: BiP/GRP78 in KRas/LKB1^wt and KRas/LKB1^null NSCLC tumors; experiment: Immunohistochemical staining of BiP in NSCLC tumors of treated mice; assay type: in vivo; conditions: 500 mg/kg twice a day for two days
Description: KRas^G12D/LKB1^lox/lox (KRas/LKB1^null) were generated by selective breeding of Lox-Stop-Lox KRas^G12D mice, purchased from Jackson Laboratories (Bar-Harbor, Me.), with LKB1^lox/lox mice obtained from Mouse Repository at the NCI and were inbred on a FVB background. KRas^G12D/LKB1^wt/wt (KRas/LKB1^wt) mice were generated by backcrossing Lox-Stop-Lox KRas^G12D onto a FVB background. Induction of lung tumors was performed. Briefly, six-week-old KRas/LKB1^null and KRas/LKB1^wt mice were transiently infected with 5×10^6 p.f.u. of Cre adenovirus (University of Iowa adenoviral core) via intranasal infection. At ˜6 weeks (KRas/LKB1^null) or ˜10 weeks (KRas/LKB1^wt) post-infection, mice underwent a baseline MRI scan to determine the baseline tumor burden. Mice with identified disease were randomized for daily treatment with either vehicle (PBS) or 500 mg/kg 2DG for three weeks, at which time mice received a follow-up MRI scan, sacrificed and the presence of disease confirmed by gross assessment and histology. For data generated in FIG. 2, KRas/LKB1^null and KRas/LKB1^wt mice with MRI positive tumors were treated either with 2DG (500 mg/kg) or vehicle (PBS) twice a day for two days before sacrifice and necropsy of tumor tissue. […]

[10] = test system: KRas/LKB1^wt and KRas/LKB1^null NSCLC tumors; experiment: Murine transgenic models of KRas and KRas/LKB1 null NSCLC, MRI tumor volume; assay type: in vivo, mice
Description: KRas^G12D/LKB1^lox/lox (KRas/LKB1^null) were generated by selective breeding of Lox-Stop-Lox KRas^G12D mice, purchased from Jackson Laboratories (Bar-Harbor, Me.), with LKB1^lox/lox mice obtained from Mouse Repository at the NCI and were inbred on a FVB background. KRas^G12D/LKB1^wt/wt (KRas/LKB1^wt) mice were generated by backcrossing Lox-Stop-Lox KRas^G12D onto a FVB background. Induction of lung tumors was performed. Briefly, six-week-old KRas/LKB1^null and KRas/LKB1^wt mice were transiently infected with 5×10^6 p.f.u. of Cre adenovirus (University of Iowa adenoviral core) via intranasal infection. At ˜6 weeks (KRas/LKB1^null) or ˜10 weeks (KRas/LKB1^wt) post-infection, mice underwent a baseline MRI scan to determine the baseline tumor burden. Mice with identified disease were randomized for daily treatment with either vehicle (PBS) or 500 mg/kg 2DG for three weeks, at which time mice received a follow-up MRI scan, sacrificed and the presence of disease confirmed by gross assessment and histology. For data generated in FIG. 2, KRas/LKB1^null and KRas/LKB1^wt mice with MRI positive tumors were treated either with 2DG (500 mg/kg) or vehicle (PBS) twice a day for two days before sacrifice and necropsy of tumor tissue. Mice received daily checks to monitor for clinical signs of disease (labored breathing, weight loss) and all procedures were under a protocol approved by the St. Joseph's Hospital and Medical Center IACUC committee.
All the scans were performed using a 7T small animal, 30-cm horizontal-bore magnet and BioSpec Advance III spectrometer (Bruker, Billerica, Mass.) with a 72 mm quadrature volume coil. Each animal was induced and maintained under isoflurane anesthesia, 3.0% and 1.5%, respectively, and delivered with 1.5 L/min of 100% oxygen. During MRI scans, the animal's respiration was continually monitored by a small animal monitoring and gating system (SA Instruments, Stoney Brook, N.Y.) via a pillow sensor positioned on top of the abdomen. Mice were placed on a heated animal bed system (Bruker, Billerica, Mass.) and the normal body temperature (36-37° C.) was maintained. For MR imaging, a Fast Low Angle Shot (FLASH) sequence (TR/TE=40 ms/2 ms; FOV=60 mm×60 mm; Average=2; matrix=256×256; Flip Angle=30°) was used to acquire initial scout images, which were used for locating the lung region for subsequent images. Then T1 weighted images were obtained with the Fast Imaging with Steady State Precession (FISP) sequence (TR/TE 5.262 ms/2.0 ms; 8 segments; FOV=30 mm×30 mm; matrix=256×256; slice thickness=1.0 mm; Flip angle, 20°; 22 averages; total acquisition time=17 min). […] Change in tumor volumes was determined by comparison of baseline tumor volume to tumor volume following three weeks of treatment.

[11] = test system: LKB1 expressing and LKB1 null LA/NSCLC cell lines; experiment: Immunoblot of pAMPK and cleaved PARP in LKB1 expressing and LKB1 null cell lines; assay type: cell-based, human; conditions: 20 mM
Description: Cells were incubated on ice for 30 minutes with a lysis buffer containing 10 mM Tris-HCL, 150 mM NaCl, 0.1% SDS and 1% IGEPAL (Sigma). Immediately before use, a protease inhibitor cocktail (Sigma) and two phosphatase cocktails I and II (Sigma) were added to the lysis buffer. Lysates were transferred to tubes and insoluble material was pelleted by centrifugation. Nuclear protein fractions were isolated using a NE-PER protein extraction kit (ThermoFisher) according to manufacturer's instructions. Protein concentration was determined using the Bio-Rad DC protein kit. For immunoblotting, 50-100 ug of total protein lysates was separated by SDS-PAGE and transferred to nitrocellulose. Blots were blocked in 5% milk/Tris buffered saline/0.1% TWEEN® 20 (polyoxyethylenesorbitan monolaurate) (TBST) and primary antibodies were diluted in 5% Bovine Serum Albumin (Sigma)/TBST and incubated overnight at 4° C. Blots were developed with ECL plus (GE) and visualized on a Kodak Image station.
Cells were washed once with ice-cold PBS and incubated on ice for 30 min with a lysis buffer containing 10 mM Tris-HCl, 150 mM NaCl, 0.1% SDS and 1% IGEPAL (Sigma) to which a protease inhibitor cocktail (Sigma) and two phosphatase cocktails I and II (Sigma) were added immediately before use. Lysates were transferred to tubes and insoluble material was pelleted by centrifugation. […]

[12] = KRas/LKB1^null mice, data not shown

Molecule	Clonogenic cell survival of H838-KDLKB1 cells (H838-KDLKB1 cells)	Tolerability of chronic dosing [1]	Clonogenic survival / cytotoxicity in H23-KDLKB1 compared to H23-LKB1 [2]	ROS levels in H838-KDLKB1, increase in intensity over H838-LKB1 [3] [fold]	Activity of Caspases 3 and 7 (apoptosis) in H23-KDLKB1 versus H23-LKB1 [4]	Cellular ATP in H838-KDLKB1 compared to H838 re-expressing LKB1 [5]	Cellular ATP in A427-KDLKB1 compared to A427 re-expressing LKB1 [6]	Phosphorylated eIF2a in H838-KDLKB1 compared to H838-LKB1 cells [7]	BiP expression in H23-KDLKB1 compared to H23 cells with reconstituted LKB1 [8] [fold decrease]	CHOP expression in H23-KDLKB1 compared to H23 cells with reconstituted LKB1 [8] [fold decrease]	BiP protein levels in NSCLC tumor cells of KRas/LKB1^wt mice (IHC) [9]	Growth of NSCLC tumors (change in tumor volume by MRI) compared to vehicle ([10]; 500 mg/kg daily, three weeks, KRas/LKB1 wt and KRas/LKB1^null mice)	Response of KRas/LKB1^null tumors compared to KRas/LKB1^wt tumors ([10]; 500 mg/kg daily, three weeks, p=0.0032)	Effects upon metastasis, gross assessment at necropsy [10, 12]	Survival of mice in longer term studies [10, 12]	Phosphorylation of AMPK in LKB1 expressing H2009 cells (not in LKB1-deficient H23 cells) [11]	Cleavage of PARP (apoptosis) in LKB1 null LA cells (H2126, H838, H1395) ([11]; 12 and 18 hours)
tunicamycin [Tm]	reduced cell survival	poorly tolerated	increased cytotoxicity	1.67	increased levels of Caspase activity	reduced ATP	reduced ATP	increased levels of phosphorylated eIF2a									
Cc1ccc(-c2cc(C(F)(F)F)nn2-c2ccc(S(N)(=O)=O)cc2)cc1 [celecoxib]			reduced the survival of H23-KDLKB1 cells in a dose dependent manner						1.6	1.3							
CC(C)C[C@H](NC(=O)[C@H](Cc1ccccc1)NC(=O)c1cnccn1)B(O)O [bortezomib]			reduced the survival of H23-KDLKB1 cells in a dose dependent manner						9	1.6							
O=CC[C@@H](O)[C@H](O)[C@H](O)CO [2DG, 2-deoxy-D-glucose]	reduced cell survival	poorly tolerated		2		reduced ATP	reduced ATP	increased levels of phosphorylated eIF2a			significant increase in BiP protein levels	reduced the growth of NSCLC tumors	statistically greater response	did not observe any effects upon metastasis	no statistical impact upon survival	resulted in phosphorylation of AMPK	increased cleavage of poly(ADP-ribose) polymerase (PARP)
